From US9068970B2, “Efficient and effective supplement screening for the development of chemically defined media in cell culture” (Abbvie Inc., priority 2010, dated 2015)
Like-named read-outs stand apart in the source and are kept apart here. Where a SMILES comes first, the peptide text is derived from it.

Assays:
Type in all cases: cell-based
[1] = tested on: recombinant IgG producing Chinese Hamster Ovary cell line (CHO cell line #1); assay: Supplement screening: process performance (peak VCD and/or harvest titer) by inspectional/statistical analysis
Experimental: Standard Analysis of Variance (ANOVA) was used to measure the significance of individual supplements and their respective interactions towards the resulting cell culture technique performance. Individual analyses were conducted on both peak viable cell density and harvest titer for each of the respective screening experiments. Three different levels of each media supplement were used in these experiments: unsupplemented (Level 1), lightly supplemented (Level 2), and heavily supplemented (Level 3). […] The optimization subroutine intrinsic to the statistics software was used to analyze the screening dataset determine the identity of a high performance media blend. It is important to note that the selection method is a mathematical exercise which can lead to multiple blends identified as having the highest performance parameters, and the results are highly dependent on the initial first guess. Three particular high performance blends were identified for further evaluation: […] The supplements whose relative concentrations supported a distinct pattern of either increasing or decreasing process performance were categorized into the clustered classification. […] These supplements were either compounds or groups of similar compounds such as polyamines, essential amino acids, and vitamins.

[2] = tested on: recombinant IgG producing Chinese Hamster Ovary cell line (CHO cell line #1); assay: 24-well plate media supplement screening: harvest titer (HPLC, Poros A affinity column)
Experimental: (§1) 24-well plates were utilized at a working volume of 1.5 mL per well to serve as the platform for media supplement screening. An in-house, base chemically defined media (CDM #1) was used as the basal media for the purposes of the experiments. A recombinant IgG producing Chinese Hamster Ovary cell line (CHO cell line #1) was used for the media supplement screening phase of the experiments.
All 24-well plate screening experiments were designed using JMP7 commercially available statistics software (Cary, N.C.) using custom experimental options. Six individual media supplement screening experiments were performed to test over a hundred different supplements in statistically designed experiments and in a serial fashion. […] Supplement solutions were manually pipetted into the respective plate wells using concentrated, sterile stock solutions. The comprehensive list of media supplements evaluated for cell culture process improvement is shown below in Table 2:
(§2) Two cell culture performance indicators were measured in the high-throughput screening experiments: peak viable cell density and harvest titer. Time point samples were withdrawn from each of the respective plate wells on Days 6, 7, and 8 post inoculation and measured for their respective viable cell densities spectrophotometrically via the CellTiter 96 AQueous Solution Cell Proliferation Assay Kits™ (Promega, Madison, Wis.). Harvest Titer measurements were conducted via high performance liquid chromatography (HPLC) with a Poros A™ affinity column (Applied Biosystems, Foster City, Calif.). All experimental wells supplemented with a particular combination of media compounds were compared to an unsupplemented control, with the results expressed as relative values relative to the control.
(§3) Two cell culture performance indicators were measured in the high-throughput screening experiments as well as media verification experiments; peak viable cell density (VCD) and harvest titer. […] A few days after the last cell count measurement sample the plates were centrifuged and the supernatant was collected and stored at −80° C. for future analysis. Harvest titer measurements were conducted via high performance liquid chromatography (HPLC) with a Poros A™ affinity column (Applied Biosystems, Foster City, Calif.). All experimental wells supplemented with a particular combination of media compounds were compared to an unsupplemented control, with the results expressed as values relative to the control. For the media verification experiments in larger-scale shaker and spinner flasks, viable cell density and viability were measured via Cedex automated cell counters (Roche Applied Science, Indianapolis, Ind.). Harvest titer measurements were similarly measured via HPLC.
(§4) Standard Analysis of Variance (ANOVA) was used to measure the significance of individual supplements and their respective interactions towards the resulting cell culture technique performance. Individual analyses were conducted on both peak viable cell density and harvest titer for each of the respective screening experiments. Three different levels of each media supplement were used in these experiments: unsupplemented (Level 1), lightly supplemented (Level 2), and heavily supplemented (Level 3). […] The optimization subroutine intrinsic to the statistics software was used to analyze the screening dataset determine the identity of a high performance media blend. It is important to note that the selection method is a mathematical exercise which can lead to multiple blends identified as having the highest performance parameters, and the results are highly dependent on the initial first guess.
The aforementioned supplements were evaluated for improvements in cell culture technique performance.

[3] = tested on: recombinant IgG producing Chinese Hamster Ovary cell line (CHO cell line #1); assay: 24-well plate media supplement screening: peak viable cell density (CellTiter 96 AQueous)
Experimental: as §1
All 24-well plate screening experiments were designed using JMP7 commercially available statistics software (Cary, N.C.) using custom experimental options. Six individual media supplement screening experiments were performed to test over a hundred different supplements in statistically designed experiments and in a serial fashion. All screening experiments were performed at […] cultured at 210 rpm on a shaker table in a 5% humidified CO2 incubator. Gas permeable, rayon film plate covers (VWR International, Radnor, Pa., Catalog #60941-086) were employed as necessary to provide a sterile barrier between the well plates, the plastic plate cover, and the culture atmosphere. Supplement solutions were manually pipetted into the respective plate wells using concentrated, sterile stock solutions. The comprehensive list of media supplements evaluated for cell culture process improvement is shown below in Table 2:
as §2, §3, §4

[4] = tested on: recombinant IgG producing Chinese Hamster Ovary cell line (CHO cell line #1); assay: JMP7 statistical identification of high performance media supplementation from a 15-supplement screening experiment; details: for Concentration Range for Increase of Harvest Titer / Concentration Range for Increase of Peak VCD and Harvest Titer: range given, variability in culture volumes
Experimental: as §4
Fifteen of these supplements, or groups of supplements, were screened in a separate statistically designed experiment for the final determination of high performance media blends for the maximization of peak VCD, harvest titer, and both of these variables simultaneously.
The JMP7 statistical software program was further used to identify the high performance media supplementation for maximizing peak VCD, harvest titer, and both simultaneously.

[5] = univariate analysis of varying supplement concentrations
[6] = HTS experiments, CDM #1, relative to unsupplemented control
[7] = predicted amount for addition into the unsupplemented control media

| Molecule | Effect on Harvest Titer [2, 6] | Effect on Peak VCD [3, 6] | other results |
| --- | --- | --- | --- |
| OC[C@H]1O[C@H](O[C@H]2[C@H](O)[C@@H](O)C(O)O[C@@H]2CO)[C@H](O)[C@@H](O)[C@@H]1O (mixture of isomers) [Maltose] | Increase | No change | Process Performance Pattern [1, 5]: Wide dispersal |
| C[C@H](N)C(=O)N[C@@H](CCC(N)=O)C(=O)O [L-alanyl-L-glutamine] (H-Ala-Gln-OH) | No change | Increase | – |
| OC1C(O)C(O)C(O)C(O)C1O (stereo not shown) [i-inositol] | No change | No change | Process Performance Pattern [1, 5]: Wide dispersal; Concentration Target (Range) for Increase of Harvest Titer [4, 7]: +0.05 (0.05-0.06) g/L; Concentration Target (Range) for Increase of Peak VCD [4, 7]: +0.11 (0.09-0.12) g/L; Concentration Target (Range) for Increase of Peak VCD and Harvest Titer [4, 7]: +0.19 (0.17-0.22) g/L |
| O=C(O)CCCC[C@@H]1SC[C@@H]2NC(=O)N[C@@H]21 [Biotin] | No change | No change | – |
| O=S(=O)([O-])[O-].[Cu+2] [Cupric sulfate] | – | – | Process Performance Pattern [1]: Wide dispersal; Effect on Harvest Titer [2]: Decrease; Effect on Peak VCD [3]: Increase; Concentration Target (Range) for Increase of Harvest Titer [4]: 0 g/L; Concentration Target (Range) for Increase of Peak VCD [4]: +0.02 g/L; Concentration Target (Range) for Increase of Peak VCD and Harvest Titer [4]: 0 g/L |
| CC(=O)C(=O)[O-].[Na+] [Sodium pyruvate] | No change | Decrease | – |
| Cyanocobalamin [Vitamin B-12] | Decrease | No change | – |
| CCCCC/C=C\C/C=C\CCCCCCCC(=O)O [Linoleic acid] | Increase | No change | – |
| O=C(CO)[C@@H](O)[C@H](O)[C@H](O)CO [Fructose] | No change | No change | – |
| N[C@@H](CSSC[C@H](N)C(=O)O)C(=O)O [Cystine, L-cystine] | Decrease | Decrease | – |
| N[C@@H](CCC(=O)N[C@@H](CS)C(=O)NCC(=O)O)C(=O)O [Glutathione, Glutathione, reduced] | Decrease | Decrease | – |
| Nc1nc(=O)c2nc(CNc3ccc(C(=O)N[C@@H](CCC(=O)O)C(=O)O)cc3)cnc2[nH]1 [Folate] | – | – | Process Performance Pattern [1, 5]: Wide dispersal |
| CCCCC/C=C\C/C=C\C/C=C\C/C=C\CCCC(=O)O [Arachidonic acid] | Decrease | Decrease | – |
| NC(=O)c1cccnc1 [Nicotinamide] | No change | Decrease | – |
| O=C[C@H](O)[C@@H](O)[C@H](O)CO [Xylose] | Increase | No change | Process Performance Pattern [1, 5]: Wide dispersal |
| O=c1[nH]cnc2nc[nH]c12 [Hypoxanthine] | – | – | Concentration Range for Increase of Harvest Titer [4]: (6.76 × 10^−4-8.68 × 10^−4) g/L; Concentration Range for Increase of Peak VCD and Harvest Titer [4]: (6.76 × 10^−4-8.68 × 10^−4) g/L |
| Concanavalin A | Decrease | Decrease | – |

| Molecule | Effect on Harvest Titer [2, 6] | Effect on Peak VCD [3, 6] | other results |
| --- | --- | --- | --- |
| C[C@]12CCC(=O)C=C1CC[C@@H]1[C@@H]2[C@@H](O)C[C@@]2(C)[C@H]1CC[C@]2(O)C(=O)CO [Hydrocortisone, reference compound] | Increase | No change | – |
| NCCO [Ethanolamine] | Decrease | Increase | – |
| NCCCNCCCCNCCCN [Spermine, free base, Spermine] | – | – | Concentration Range for Increase of Harvest Titer [4]: (8.11 × 10^−5-1.04 × 10^−4) g/L; Concentration Range for Increase of Peak VCD and Harvest Titer [4]: (8.11 × 10^−5-1.04 × 10^−4) g/L |
| NCCCCNCCCN [Spermidine, free base, Spermidine] | – | – | Concentration Range for Increase of Harvest Titer [4]: (4.22 × 10^−5-5.42 × 10^−5) g/L; Concentration Range for Increase of Peak VCD and Harvest Titer [4]: (4.22 × 10^−5-5.42 × 10^−5) g/L |
| Cc1ncc(CO)c(CO)c1O.Cl [Vitamin B-6, Pyridoxine hydrochloride] | Increase | No change | – |
| NCCS(=O)(=O)O [Taurine] | Decrease | Decrease | – |
| Cl.N[C@@H](Cc1cnc[nH]1)C(=O)O.O [L-histidine*HCl*H2O] | – | – | Concentration Target (Range) for Increase of Harvest Titer [4, 7]: +0.25 (0.22-0.28) g/L; Concentration Target (Range) for Increase of Peak VCD [4, 7]: +0.21 (0.18-0.23) g/L; Concentration Target (Range) for Increase of Peak VCD and Harvest Titer [4, 7]: +0.25 (0.22-0.28) g/L |
| O=C([O-])CC(O)(CC(=O)[O-])C(=O)[O-].[Na+].[Na+].[Na+] [Sodium citrate] | No change | No change | – |
| C[N+](C)(C)CCO.[Cl-] [Choline chloride] | – | – | Process Performance Pattern [1]: Wide dispersal; Effect on Harvest Titer [2]: No change; Effect on Peak VCD [3]: No change |
| CC(=O)N[C@H]1C(O)O[C@H](CO)[C@@H](O)[C@@H]1O (stereo partly shown) [GlcNAc, N-acetylglucosamine] | No change | Decrease | – |
| Nc1ccc(C(=O)O)cc1 [PABA, Para-amino benzoic acid] | No change | Decrease | – |
| O=C(O)CN(CCN(CC(=O)O)CC(=O)O)CC(=O)O [EDTA] | Decrease | Increase | – |
| CC(=O)N[C@H]1C(O)O[C@H](CO)[C@H](O)[C@@H]1O (stereo partly shown) [GalNAc, N-acetylgalactosamine] | Decrease | No change | – |
| Cc1cc2nc3c(=O)[nH]c(=O)nc-3n(C[C@H](O)[C@H](O)[C@H](O)CO)c2cc1C [Riboflavin] | No change | Decrease | – |
| NCCCCN [Putrescine] | No change | Decrease | Concentration Range for Increase of Harvest Titer [4]: ( 1.06 × 10^−4-1.36 × 10^−4) g/L; Concentration Range for Increase of Peak VCD and Harvest Titer [4]: (1.06 × 10^−4-1.36 × 10^−4) g/L |
| CNCC(=O)O [Sarcosine] | Decrease | No change | – |
